Measured values published in patent EP0642790A2, “Alkali citrates and their use as medicaments, especially against arterosclerosis” (MADAUS AG, priority 1993, dated 1995).
Where two headings read alike, the source gives them in different places.

Tests used:
Aortasegmenten = test: Mineral content and calcium/phosphorus quotient in the implanted aorta segments; type: in vivo, Ratten (Sprague-Dawley-Ratten); settings: for Calcium, Konzentration in Aortasegmenten: mean (range of measured values), Kontrolle 4,77; for Phosphor, Konzentration in Aortasegmenten / Magnesium, Konzentration in Aortasegmenten: mean (range); for Phosphor, Konzentration in Aortasegmenten: Kontrolle 4,47; for Magnesium, Konzentration in Aortasegmenten: Kontrolle 0,20
Excerpt: (§1) Pentobarbital betäubten Ratten (Sprague-Dawley-Ratten) wurde die Aorta aseptisch entnommen, in acht 5 mm große Segmente geschnitten und in sterile Diffusionskammern (Fa. Millipore GmbH, Eschborn), mit einem Durchmesser von 14 mm und einer Porengröße von 0,22 µm fixiert. Jeweils 2 Kammern wurden in die Bauchhöhle einer Ratte implantiert. Die Versuchsgruppen bestanden aus mindestens 7 Ratten.
(§2) Jedem Versuchstier wurden pro Tag 2,1 mmol Citrat oral in zwei gleichen Dosen appliziert, nach 22 Tagen die beiden Diffusionskammern entnommen und die Aorta-Abschnitte licht-, elektronenmikroskopisch, röntgenspektrographisch sowie elementar-analytisch untersucht. Zur histologischen Untersuchung wurden die Gewebeabschnitte in 8% Formalin fixiert, die Aortaabschnitte für die lichtmikroskopischen Untersuchung nach Kossa mit Hämatoxylin und Eosin gefärbt sowie diejenigen zur elektronenmikroskopischen Untersuchung in 2,5% Glutaraldehyd und anschließend in 1% Osmiumtetroxyd fixiert. Die Bestimmung der maximalen Ablagerungsschichtdicke erfolgte mittels Okularmikrometer und die Flächenausdehnung der Ablagerungsschicht der jeweiligen Aortasegmente wurden nach bekannten Methoden ermittelt.

[1] = parameters: species or system Ratten (Sprague-Dawley-Ratten); settings: rat, in vivo
Excerpt: as §1, §2
Der Umstand, daß Alkalicitrate ohne Nebenwirkungen im Gegensatz zu bekannten o.g. Medikamente auf die Nierentätigkeit ist, ergibt sich auch aus der Bestimmung der Urinzusammensetzung [Tabelle (2B)). Die Konzentrationen von beispielsweise cAMP unterschieden sich nur unwesentlich von denen der Kontrolle.

[2] = parameters: species or system Ratten (Sprague-Dawley-Ratten); settings: rat, in vivo; remark: listed apart in the source
Excerpt: as §1, §2
Das bedeutet, daß die Verstoffwechslung erhöhter Gaben von KNC, KC oder NC im Organismus nicht zu einer Veränderung der Serumzusammensetzung führt und daß daher die Nierenfiltration aufgrund der im Normbereich befindlichen Fraktionen der ultrafiltrierbaren und ionablen Fraktion des Serums nicht beeinträchtigt wird.
Um die Wirkung der Applikationen von KNC, NC und KC auf den Hormonhaushalt zu überprüfen, wurde die Konzentration von PTH im Blut analysiert.

[3] = system: Ablagerungen in Aortasegmenten; test: Calcification (deposit formation) of rat aorta segments in diffusion chambers implanted into the abdominal cavity of rats; histology and morphometry; type: in vivo, Ratten (Sprague-Dawley-Ratten); settings: for Dicke (Ablagerungsschichtdicke): 2,1 mmol Citrat per day orally in two doses, maximal deposit layer thickness by ocular micrometer, Kontrolle 55; for Dicke (Ablagerungsschichtdicke) / Minimierung der Flächenausdehnung der Ablagerungen im Vergleich zur Kontrolle / Fläche (Flächenausdehnung der Ablagerungen): 22 days; for Minimierung der Flächenausdehnung der Ablagerungen im Vergleich zur Kontrolle / Fläche (Flächenausdehnung der Ablagerungen): 2,1 mmol Citrat per day orally; for Fläche (Flächenausdehnung der Ablagerungen): Kontrolle 240; for histologisch-lichtmikroskopische Untersuchung der Querschnitte der Aortaabschnitte: Kontrolle: pronounced deposit formation; for Abnahme der Ablagerungsschichtdicke im Vergleich zu der Kontrolle (Faktor): factor versus Kontrolle (55 µm); for relative Volumina %: relative to Kontrolle = 100; for relative Volumina: thickness multiplied by area, Kontrolle 13200
Excerpt: as §1
Folgende wäßrige Citrat-Lösungen wurden oral appliziert:
as §2

| Substance | Calcium, Konzentration in Aortasegmenten (Aortasegmenten) | Phosphor, Konzentration in Aortasegmenten (Aortasegmenten) | Citrat [1] | Magnesium [1] | cAMP [1] | Calcium [2] | Calcium/ Protein [2] | Citrat [2] | Ges.CO2 [2] | Ges.Protein [2] | Kreatinin [2] | PTH [2] | arteriell-venöse pH-Wert, Konzentrationen an Gesamt-CO₂, Citrat, Magnesium und Phosphor im Blut [2] | pH [2] | Dicke (Ablagerungsschichtdicke) [3] | Minimierung der Flächenausdehnung der Ablagerungen im Vergleich zur Kontrolle [3] | Fläche (Flächenausdehnung der Ablagerungen) [3] | histologisch-lichtmikroskopische Untersuchung der Querschnitte der Aortaabschnitte [3] | relative Volumina % [3] | relative Volumina [3] | other results |
| --- | --- | --- | --- | --- | --- | --- | --- | --- | --- | --- | --- | --- | --- | --- | --- | --- | --- | --- | --- | --- | --- |
| K₆Na₆H₃(C₆H₅O₇)₅ x 2 H₂O [KNC] | 4,93 (3,40-7,16) mmol/g | 6,80 (2,09-10,51)^1 mmol/g | 20,0 (13,2-30,3)^1 µmol/g | 3,7 (1,4-8,0)^3 µmol/mg | 11,6 (9,0-15,9) nmol/mg | 2,27 (2,22-2,33)^1 mmol/l | 45 (40-47) µmol/g | 164 (55-244) µmol/l | 40,9 (36,9-45,1) mmol/g | 50,7 (47,5-57,0)^2 g/l | 30,9 (15,9-35,4)^2 µmol/l | 200-553 | nicht verändert | 7,39 (7,34-7,43) | 23 µm | 54% | 131 | gleichmäßig gestaltete (ohne besondere Erhebungen), stark verringerte Plaqueschicht | 23% | 3013 | Magnesium in Aortasegmenten, Vergleich der Gruppen (Aortasegmenten; in words): höchsten Magnesiumanstieg; PTH-Level im Blut, Unterschied zur Kontrolle [2]: keine Unterschiede; Abnahme der Ablagerungsschichtdicke im Vergleich zu der Kontrolle (Faktor) [3]: 2,4; Ablagerungsdicke im Gegensatz zur Kontrolle ([3]; thickness as percent of Kontrolle): < 55% |
| Na₃C₆H₅O₇ x 2 H₂O [NC] | 4,20 (2,61-10,90) mmol/g | 6,35 (3,34-14,60) mmol/g | 19,7 (15,8-30,4)^2 µmol/g | 4,0 (2,6-8,0)^3 µmol/mg | 13,5 (12,1-14,2) nmol/mg | 2,20 (2,04-2,30)^3 mmol/l | 46 (42-50) µmol/g | 171 (140-212) µmol/l | 40,9 (29,6-51,8) mmol/g | 48,3 (44,8-55,3)^2 g/l | 31,8 (30,1-33,6)^1 µmol/l | 200-415 | nicht verändert | 7,43 (7,35-7,49) |  |  | 159 | gleichmäßig verteilte ohne besondere Erhebungen gestaltete Ablagerungsschicht | 31% | 4134 | Magnesium, Konzentration in Aortasegmenten (Aortasegmenten): 0,28 (0,20-0,33)^1 mmol/g; Abnahme der Ablagerungsschichtdicke im Vergleich zu der Kontrolle (Faktor) [3]: > 2 |
| K₃C₆H₅O₇ x 1 H₂O [KC] | 5,09 (3,15-10,81) mmol/g | 7,66 (2,97-17,74) mmol/g | 22,0 (11,3-25,0)^2 µmol/g | 3,4 (1,8-9,1)^3 µmol/mg | 12,9 (9,9-16,0) nmol/mg | 2,27 (2,20-2,43)^1 mmol/l | 44 (42-46) µmol/g | 163 (96-248) µmol/l | 45,0 (39,2-50,8) mmol/g | 51,0 (48,3-53,3)^2 g/l | 31,8 (25,6-39,8) µmol/l | 200-468 | nicht verändert | 7,39 (7,31-7,45) | 33 µm | 41% | 98 | gleichmäßig verteilte ohne besondere Erhebungen gestaltete Ablagerungsschicht | 25% | 3234 | Magnesium, Konzentration in Aortasegmenten (Aortasegmenten): 0,28 (0,20-0,43)^2 mmol/g |
